Test results from US20090018142A9, “Use of phosphatases to treat tumors overexpressing N-CoR” (priority 2006, published 2009).
Entries after “also recorded” stand apart in the source; their conditions may differ. Read-outs that look alike come from different tables or passages of the source.

Columns and labels:
[1] = tested on: breast cancer line, MCF-7; assay: Inhibition of growth of breast cancer line MCF-7, single agents, 7 days; format: cell-based; conditions: for Inhibition of MCF-7 growth (in words): individual doses, 7 days (FIG. 6C); for Sensitivity of MCF-7 compared with U373 (in words): single agents, 7 days (FIG. 6C vs 6B)
Text: (§1) To determine whether there is tumor type specificity of the inhibitory properties of PP2A inhibitors, retinoic acid and Trichostatin A, we measured their inhibitory effects as single agents against the GBM line U373, a breast cancer line, MCF-7 (obtained from ATCC) and a kidney cancer cell line, UMRC (UMRC obtained by Dr. Zhuang, NINDS, NIH from the Intramural Research Support Program, SAIC, National Cancer Institute, Frederick Cancer Research and Development Center).

[2] = tested on: kidney cancer cell line, UMRC; assay: Inhibition of growth of kidney cancer cell line UMRC, single agents, 7 days; format: cell-based; conditions: 7 days (FIG. 6A vs 6B)
Text: as §1

[3] = tested on: GBM cell line U373; assay: cells; format: cell-based, human; conditions: for Inhibition of U373 growth as single agent (in words): individual treatment, 7 days; for Concentration range of activity against U373 (in words): single agent (FIG. 5A, 5B)
Procedure: To identify novel therapeutic targets for the treatment of glioblastoma multiforme (GBM), cantharidin analogs were evaluated for their ability to inhibit growth of glioblastoma multiforme cells. Specifically, GBM cell line U373 was used in evaluations.
The total number of cells is counted in the triplicate cultures at each dose and in controls after 7 days and the average number of cells and the standard deviation is determined.
The amount of inhibition of GBM cell growth is expressed as the proportion of the number of cells in the experimental dishes compared to the number of cells in control dishes containing only the drug vehicle and culture medium. The average percent of control is plotted and bracketed by one standard deviation calculated from the triplicate measurements.

[4] = tested on: PP1; conditions: cited from earlier work
[5] = tested on: PP2A; conditions: cited from earlier work
[6] = cited from earlier work; for Urinary tract toxicity (in words): in vivo
[7] = tested on: primary hepatoma; conditions: cited from earlier work
[8] = tested on: white blood cell production; conditions: patients and mice; cited from earlier work
[9] = tested on: GBM cell line U343 MG-A; assay: Growth of GBM cell line U343 MG-A, cell counts over 16 days; format: cell-based, human; conditions: 50 μM retinoic acid and/or 10 nM okadaic acid
Procedure: Finally, the GBM cell line U343 MG-A was treated with 50 μM of retinoic acid (RA) and/or 10 nM of okadaic acid (OA), a protein phosphatase-1 inhibitor.
Three cultures for each of four treatments were grown for 16 days with cell counts obtained at baseline and for each of the eight even numbered days. Log transformations were applied to the cell counts, and repeated measures of analysis of variance model used to evaluate the treatment differences over time. Pair wise treatment comparisons used Sidak's statistic to account for multiple testing.

[10] = for weeks; cited from earlier work
[11] = tested on: brain tumor stem cells (BTSC) isolated from GBM; assay: Differentiation of cultured brain tumor stem cells treated with CNTF (GFAP expression, N-CoR localization); format: cell-based
Procedure: (Hughes et al. (1988)) The BTSCs cells were then assessed for GFAP expression along with subcellular N—CoR localization.

[12] = Homo sapiens, U373 MG, 168 h, read-out: IC50, concentration that inhibited brain tumor cell proliferation by 50%
[13] = U373, 7 days exposure, estimated from graphic plots (FIG. 3), read-out: IC50, concentration that inhibited brain tumor cell proliferation by 50%

CC1=C(/C=C/C(C)=C/C=C/C(C)=C/C(=O)O)C(C)(C)CCC1 [ATRA, all-trans retinoic acid]
Inhibition of MCF-7 growth (in words) [1]: showed an inhibition in growth
Sensitivity of MCF-7 compared with U373 (in words) [1]: as sensitive as U373
Sensitivity of UMRC compared with U373 (in words) [2]: less sensitive
IC50 ([3]; Homo sapiens, U373 MG, 168 h, U373, 7 days (FIG. 4A), read-out: IC50 of ATRA alone): > 50 µM
activity at 25 µM ([3]; Homo sapiens, U373 MG, U373, ATRA 25 uM alone, read-out: Percent of Control, Observed): 77%
Inhibition of U373 growth as single agent (in words) ([3]; U373): modest inhibition of growth

CC1=C(/C=C/C(C)=C/C=C/C(C)=C\C(=O)O)C(C)(C)CCC1 [Cis-RA, 13-cis retinoic acid]
Percent of Control, Observed ([3]; U373, Cis-RA 50 μM alone): 93.3 +/− 2.2% of Control
Inhibition of U373 growth as single agent (in words) ([3]; U373): modest inhibition of growth

CC(/C=C/C(=O)NO)=C\[C@@H](C)C(=O)c1ccc(N(C)C)cc1 [TSA, Trichostatin A]
Inhibition of MCF-7 growth (in words) [1]: showed an inhibition in growth
Sensitivity of MCF-7 compared with U373 (in words) [1]: as sensitive as U373
Sensitivity of UMRC compared with U373 (in words) [2]: less sensitive
Percent of Control, Observed ([3]; U373, TSA 0.033 μM (0.01 μg/ml) alone): 71.6 +/− 0.4% of Control
Inhibition of U373 growth as single agent (in words) ([3]; U373): dose dependent activity
Concentration range of activity against U373 (in words) ([3]; U373): active at nM concentrations

C[C@@]12C(=O)OC(=O)[C@]1(C)[C@H]1CC[C@@H]2O1 [cantharidin]
Inhibition of PP1 activity (in words) [4]: to some extent
Inhibition of PP2A activity (in words) [5]: inhibit the activity of PP2A
Urinary tract toxicity (in words) [6]: toxic to the urinary tract

CN1CCN(C(=O)C2C(C(=O)O)[C@H]3CC[C@@H]2O3)CC1 (stereo partly drawn) [compound LB-1]
IC50 [3, 12]: 3 µM
activity at 1 µM ([3]; Homo sapiens, U373 MG, read-out: Percent of Control, Observed, U373, LB-1 1 uM alone (Table 1)): 78%
Percent of Control, Observed ([3]; U373, LB-1 1 μM alone (Table 3)): 97.9 +/− 1.0% of Control
Percent of Control, Observed ([3]; U373, LB-1 5 μM alone): 52.5 +/− 2.9% of Control
Inhibition of U373 growth as single agent (in words) ([3]; U373): modest inhibition of growth

O=C1SC(=O)[C@H]2[C@@H]1[C@@H]1CC[C@H]2O1 [endothal thioanhydride]
Inhibition of PP1 activity (in words) [4]: to some extent
Inhibition of PP2A activity (in words) [5]: inhibit the activity of PP2A
Sensitivity of MCF-7 compared with U373 (in words) [1]: as sensitive as U373
Sensitivity of UMRC compared with U373 (in words) [2]: less sensitive
IC50 [3, 13]: 2.5 µM
Inhibition of U373 growth as single agent (in words) ([3]; U373): most potent inhibitor of GBMs in vitro; also recorded: greatest inhibition of growth
Liver toxicity (in words) ([6]; mice): toxic to the liver of mice

O=C(O)C1C2CCC(O2)C1C(=O)O (stereo not drawn) [endothal]
Inhibition of PP1 activity (in words) [4]: to some extent
Inhibition of PP2A activity (in words) [5]: inhibit the activity of PP2A
Inhibition of MCF-7 growth (in words) [1]: showed an inhibition in growth
Sensitivity of MCF-7 compared with U373 (in words) [1]: as sensitive as U373
Sensitivity of UMRC compared with U373 (in words) [2]: less sensitive
IC50 [3, 12]: 15 µM
activity at 1 µM ([3]; Homo sapiens, U373 MG, read-out: Percent of Control, U373, endothal 1 μM, 13-cis retinoic acid none): 100%
activity at 5 µM ([3]; Homo sapiens, U373 MG, read-out: Percent of Control, U373, endothal 5 μM, 13-cis retinoic acid none): 96%
activity at 10 µM ([3]; Homo sapiens, U373 MG, read-out: Percent of Control, U373, endothal 10 μM, 13-cis retinoic acid none): 76%
Percent of Control, Observed ([3]; U373, END 10 uM alone): 65%
Percent of Control ([3]; U373, endothal 10 μM, 13-cis retinoic acid none): 73%
Inhibition of U373 growth as single agent (in words) ([3]; U373): modest inhibition of growth

O=C1OC(=O)[C@H]2[C@@H]1[C@H]1CC[C@H]2O1 [norcantharidin]
1-year survival ([7]; 244 patients with primary hepatoma, historical controls 17%): 30%
Life span of patients with primary hepatoma ([7]; 244 patients, historical controls on standard chemotherapy 4.7 months): 11.1 months
White blood cell production (in words) [8]: stimulates white blood cell production
Sensitivity of MCF-7 compared with U373 (in words) [1]: as sensitive as U373
Sensitivity of UMRC compared with U373 (in words) [2]: less sensitive
IC50 [3, 13]: 12 µM
Relative toxicity in vivo (in words) ([6]; compared among endothal thioanhydride, norcantharidin, endothal): falling in between
Urinary tract toxicity (in words) [6]: little or no urinary tract toxicity

C=C1[C@@H](O)[C@@H]2O[C@]3(CC[C@H](/C=C/[C@@H](C)[C@@H]4CC(C)=C[C@@]5(O[C@H](C[C@@](C)(O)C(=O)O)CC[C@H]5O)O4)O3)CC[C@H]2O[C@@H]1[C@@H](O)C[C@H](C)[C@H]1O[C@@]2(CCCCO2)CC[C@H]1C [okadaic acid]
Course of cell counts over time (in words) ([9]; 16 days): monotonically increased
Effect on cell growth (in words) ([9]; 16 days (FIG. 2C)): modest effect on cell growth

CCCC(CCC)C(=O)O [valproic acid]
Serum concentration tolerated in humans [10]: ~1.0 mM
Inhibition of U373 growth as single agent (in words) ([3]; U373): dose dependent activity
Concentration range of activity against U373 (in words) ([3]; U373): in the mM range

B1: CNTF: ciliary neurotrophic factor, agent shown to induce astrocytic differentiation of neural stem cells in vitro (protein, UniProt P26441 1-200, looked up)
Ciliary neurotrophic factor: MAFTEHSPLTPHRRDLCSRSIWLARKIRSDLTALTESYVKHQGLNKNINLDSADGMPVASTDQWSELTEAERLQENLQAYRTFHVLLARLLEDQQVHFTPTEGDFHQAIHTLLLQVAAFAYQIEELMILLEYKIPRNEADGMPINVGDGGLFEKKLWGLKVLQELSQWTVRSIHDLRFISSHQTGIPARGSHYIANNKKM
GFAP expression in BTSC (in words) ([11]; BTSC cultured with CNTF, 2-DGE and LCMS (FIG. 2A)): began to express GFAP
Subcellular localization of N-CoR in BTSC (in words) ([11]; Western blot of cytoplasmic fraction of CNTF-treated BTSC (FIG. 2B)): translocation of N—CoR to the cytoplasm
Time of peak cytoplasmic N-CoR and GFAP expression ([11]; following CNTF stimulation): 7 days
